Reference: ChEMBL document CHEMBL5154912, “Penicillin Derivatives Inhibit the SARS-CoV-2 Main Protease by Reaction with Its Nucleophilic Cysteine” (J Med Chem, 2022)
Active and inactive are the calls of the source. The calls are words filed in the database; no cut-off is given here.

Tests used:
[1] = molecular target: Replicase polyprotein 1ab (Severe acute respiratory syndrome coronavirus 2) (UniProt P0DTD1); experiment: Inhibition of recombinant SARS-CoV-2 Main protease at Cys145 residue by covalent modification at 10 uM incubated for 45 mins by SPE-MS analysis
[2] = molecular target: Replicase polyprotein 1ab (Severe acute respiratory syndrome coronavirus 2) (UniProt P0DTD1); experiment: Inhibition of recombinant SARS-CoV-2 Main protease at Cys145 residue by non-covalent binding incubated for 45 mins by MS analysis
[3] = molecular target: Replicase polyprotein 1ab (Severe acute respiratory syndrome coronavirus 2) (UniProt P0DTD1); experiment: Inhibition of recombinant SARS-CoV-2 Main protease at Cys145 residue by covalent modification at 33 uM incubated for 45 mins by MS analysis
[4] = molecular target: Replicase polyprotein 1ab (Severe acute respiratory syndrome coronavirus 2, UniProt P0DTD1); experiment: Inhibition of recombinant SARS-CoV-2 Main protease using ALNDFSNSGSDVLYQPPQTSITSAVLQ/SGFRKMAFPS-NH2 as substrate preincubated for 45 to 75 mins followed by substrate addition measured after 6 mins by SPE-MS inhibition assay

For CC1(C)[C@H](C(=O)OCc2ccccc2)N2C(=O)[C@@H](NC(=O)COc3ccccc3)[C@H]2S1(=O)=O, which inhibition [1] is on record?
Its inhibition is “Active”.

How did the inhibition [2] turn out when CC1(C)[C@H](C(=O)OCc2ccccc2)N2C(=O)[C@@H](NC(=O)COc3ccccc3)C[C@H]2S1(=O)=O was run?
The inhibition was “Active”.

For C#CCOC(=O)[C@@H]1N2C(=O)[C@@H](NC(=O)COc3ccccc3)[C@H]2S(=O)(=O)C1(C)C, which inhibition [3] is on record?
The inhibition was “Active”.

CC1(C)[C@H](C(=O)OCOc2ccccc2)N2C(=O)[C@@H](NC(=O)COc3ccccc3)[C@H]2S1(=O)=O was tested. Which IC50 [4] did it give?
Its IC50 is 6.6 µM.
